Source: patent US20160175221A1, “COMPOSITION FOR PREVENTING SKIN AGING CONTAINING ALOESIN OR DERIVATIVE THEREOF” (UNIVERA INC., priority 2013, published 2016)

What was measured:
[1] = tested on: type I procollagen peptide (PIP); test: PIP level in medium by procollagen type I C-peptide EIA kit; type: cell-based, human; conditions: 0.01 μg/ml and 0.1 μg/ml
Procedure: (§1) The concentrations of MMP-1 and PIP in the medium were determined using commercially available enzyme-linked immunosorbent assay (ELISA) kits (Human Total MMP-1 Kit, R&D Systems, Inc., Minneapolis, Minn., USA and procollagen type I C-peptide enzyme immunoassay (EIA) kit, Takara Inc., Shiga, Japan) according to the manufacturer's instructions. Each sample was analyzed in triplicate.

[2] = tested on: MMP-1; test: MMP-1 level in medium by ELISA (Human Total MMP-1 Kit); type: cell-based; conditions: NHDFs after UVB irradiation (144 mJ/cm^2), 72 hours, FIG. 2
Procedure: as §1

[3] = tested on: MMP-1 mRNA; test: RT-PCR of MMP-1 mRNA in UVB irradiated fibroblasts; type: cell-based, human; conditions: NHDFs after UVB irradiation, 0.01 μg/ml, 0.1 μg/ml and 1 μg/ml, 24 hours; ratio to GAPDH; FIG. 4
Procedure: (§2) After UVB irradiation, separation of RNA from aloesin treated normal human dermal fibroblasts (NHDFs) was performed using TRIZOL reagent (Invitrogen Life Technologies, Carlsbad, […]) according to the manufacturer's instructions. RNA (5 μg) was subjected to reverse transcription using 200 units of reverse transcriptase and 0.5 μg/μl of oligo-(dT) 15 primer (Bioneer Inc., Korea). The reaction was performed at 42° C. for 60 minutes, and then terminated by heating at 94° C. for five minutes. PCR amplification of cDNA template was performed using PCR premix (Bioneer Inc.) and the following primer pairs: MMP-1, forward 5′-ATTCTACTGATATCGGGGCTTTGA-3′, reverse 5′-ATGTCCTTGGGGTATCCGTGTAG-3′; procollagen type I, forward 5′-CTCGAGGTGGACACCACCCT-3′, reverse 5′-CAGCTGGATGGCCACATCGG-3′; and glyceraldehydes-3-phosphate […] (GAPDH), sense 5′-ACCACAGTCCATGCCATCAC-3′, antisense 5′-CCACCACCCTGTTGCTGTAC-3′. […]
(§3) To investigate mRNA levels of aloesin treated cells (24 hours after treatment), the concentration of MMP-1 and procollagen type I was measured in UVB irradiated normal human dermal fibroblasts. To quantify the data, the ratio of MMP-1/GAPDH and procollagen type I/GAPDH in normal human dermal fibroblasts was randomly set to 1.0, based on band signal intensity.

[4] = tested on: procollagen type I mRNA; test: RT-PCR of procollagen type I mRNA in UVB irradiated fibroblasts; type: cell-based, human; conditions: NHDFs after UVB irradiation, 0.01 μg/ml, 0.1 μg/ml and 1 μg/ml, 24 hours; ratio to GAPDH; FIG. 4
Procedure: as §2, §3

[5] = tested on: normal human dermal fibroblasts (NHDFs); test: MTT colorimetric assay, cytotoxicity of treated cells; conditions: before and after UVB irradiation, 0.01 and 0.1 μg/ml before, 0.1 and 1 μg/ml after, 72 hours after treatment, FIG. 1
[6] = NHDFs after UVB irradiation, 72 hours, FIG. 3b
[7] = NHDFs prior to UVB irradiation, FIG. 3a

Row | Structure (SMILES) | PIP levels [1, 6] | PIP levels [1, 7] | MMP-1 levels ([2]; 1 μg/ml) | mRNA expression of MMP-1 [3] | MMP-1 levels ([2]; 0.1 μg/ml) | mRNA expression of procollagen type I [4] | cytotoxicity [5]
1 | CC(=O)Cc1cc(=O)c2c(C)cc(O)c([C@@H]3O[C@H](CO)[C@@H](O)[C@H](O)[C@H]3OC(=O)/C=C/c3ccc(O)cc3)c2o1 [aloeresin A] | significantly increased PIP levels | significantly increased PIP levels | – | – | – | – | –
2 | COc1cc(C)c2c(=O)cc(C[C@H](C)O)oc2c1[C@@H]1O[C@H](CO)[C@@H](O)[C@H](O)[C@H]1OC(=O)/C=C/c1ccc(O)cc1 [isoaloeresin D] | significantly increased PIP levels | significantly increased PIP levels | significantly decreased MMP-1 levels | – | – | – | –
3 | CC(=O)Cc1cc(=O)c2c(C)cc(O)c([C@@H]3O[C@H](CO)[C@@H](O)[C@H](O)[C@H]3O)c2o1 [aloesin] | significantly increased PIP levels | significantly increased PIP levels | – | decreased mRNA expression of MMP-1 | significantly decreased MMP-1 levels | significantly increased mRNA expression of procollagen type I | decreased cytotoxicity
